{"source": "ChEMBL document CHEMBL1128816", "about": "“Synthesis and structure-activity relationships of new acetylcholinesterase inhibitors: Morpholinoalkylcarbamoyloxyeseroline derivatives” (Bioorg Med Chem Lett, 1995)", "biological_target": "Acetylcholinesterase (Homo sapiens, UniProt P22303)", "sequence (P22303 whole entry)": "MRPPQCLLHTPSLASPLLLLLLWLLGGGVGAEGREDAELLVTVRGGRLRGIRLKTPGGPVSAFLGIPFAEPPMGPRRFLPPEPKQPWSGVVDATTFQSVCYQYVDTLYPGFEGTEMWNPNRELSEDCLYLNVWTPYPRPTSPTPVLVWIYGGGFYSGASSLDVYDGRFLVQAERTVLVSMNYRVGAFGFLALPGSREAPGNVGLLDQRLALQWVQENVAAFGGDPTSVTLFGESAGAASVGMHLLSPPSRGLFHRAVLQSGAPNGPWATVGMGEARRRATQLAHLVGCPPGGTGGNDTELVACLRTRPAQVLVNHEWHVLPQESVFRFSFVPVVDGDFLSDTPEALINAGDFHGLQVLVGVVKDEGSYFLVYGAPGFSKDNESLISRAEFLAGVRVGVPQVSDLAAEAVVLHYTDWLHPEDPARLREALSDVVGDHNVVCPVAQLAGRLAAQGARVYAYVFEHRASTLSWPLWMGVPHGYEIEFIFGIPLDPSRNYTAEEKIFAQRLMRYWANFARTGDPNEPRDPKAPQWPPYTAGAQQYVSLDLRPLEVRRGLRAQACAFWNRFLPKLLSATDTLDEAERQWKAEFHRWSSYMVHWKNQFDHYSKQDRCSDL", "experiment": "Inhibition of Acetylcholinesterase (AChE) from human RBC"}
{"smiles": "CN1CC[C@@]2(C)c3cc(OC(=O)NCCCCN4CCOCC4)ccc3N(C)[C@@H]12", "values": [{"measurement": "IC50", "value": 21, "unit": "µM"}]}
{"smiles": "CN1CC[C@@]2(C)c3cc(OC(=O)NCCCCCCCCN4CCOCC4)ccc3N(C)[C@@H]12", "values": [{"measurement": "IC50", "value": 0.08, "unit": "µM"}]}
